Measurements published in ChEMBL document CHEMBL3259816, “Interactions of cyclic and non-cyclic naphthalene diimide derivatives with different nucleic acids” (Bioorg Med Chem, 2014).
Calls of active or inactive are those of the source. The rule behind the calls is not given here.

Columns and labels:
[1] = Binding affinity to double strand 5'-GGGAGGTTTCGC-3' and 5'-GCGAAACCTCCC-3' DNA (unknown origin) assessed as change in melting temperature by spectrophotometry in presence of Na+
Nucleic Acid [2] = experiment: Binding affinity to double strand 5'-GGGAGGTTTCGC-3' and 5'-GCGAAACCTCCC-3' DNA (unknown origin) assessed as DNA intercalation at 0.5 to 6.75 uM by circular dichroism analysis in presence of Na+; format: nucleic-acid assay
Nucleic Acid [3] = experiment: Binding affinity to double strand 5'-GGGAGGTTTCGC-3' and 5'-GCGAAACCTCCC-3' DNA (unknown origin) assessed as DNA intercalation at 0.5 to 6.75 uM by circular dichroism analysis in presence of K+; format: nucleic-acid assay
Nucleic Acid [4] = experiment: Binding affinity to double strand 5'-GGGAGGTTTCGC-3' and 5'-GCGAAACCTCCC-3' DNA (unknown origin) assessed as DNA intercalation at 0.75 to 11.25 uM by circular dichroism analysis in presence of K+; format: nucleic-acid assay
[5] = Binding affinity to 5'-AGGG(TTAGGG)3-3' DNA (unknown origin) by Benesi-Hildebrand method in presence of K+
[6] = Binding affinity to 5'-AGGG(TTAGGG)3-3' DNA (unknown origin) assessed as change in melting temperature by spectropolarimetry in presence of K+
[7] = Stabilization of 5'-AGGG(TTAGGG)3-3' DNA (unknown origin) assessed as G-quadruplex formation at 1:0.3 to 1:4.5 DNA/ligand molar ratio by circular dichroism analysis in presence of KCl
Calf thymus DNA = experiment: Binding affinity to calf thymus DNA assessed as DNA intercalation at 5 to 50 uM by circular dichroism analysis in presence of NaCl; format: nucleic-acid assay; details: Bos taurus
[8] = Binding affinity to 5'-AGGG(TTAGGG)3-3' DNA (unknown origin) assessed as change in melting temperature by spectropolarimetry in presence of Na+
Nucleic Acid [9] = experiment: Binding affinity to poly (dG-dC)2 dsDNA (unknown origin) assessed as DNA intercalation at 5 to 50 uM by circular dichroism analysis in presence of NaCl; format: nucleic-acid assay
[10] = Binding affinity to poly (dA-dT)2 dsDNA (unknown origin) assessed as change in melting temperature at 1:0.05 DNA/ligand ratio by absorbance melting method in presence of Na+
Nucleic Acid [11] = experiment: Binding affinity to poly (dA-dT)2 dsDNA (unknown origin) assessed as DNA intercalation at 5 to 50 uM by circular dichroism analysis in presence of NaCl; format: nucleic-acid assay
[12] = Binding affinity to poly (dA-dT)2 dsDNA (unknown origin) assessed as change in melting temperature at 1:0.15 DNA/ligand ratio by absorbance melting method in presence of Na+
[13] = Stabilization of 5'-AGGG(TTAGGG)3-3' DNA (unknown origin) assessed as G-quadruplex formation at 1:0.3 to 1:4.5 DNA/ligand molar ratio by circular dichroism analysis in presence of NaCl
[14] = Binding affinity to 5'-AGGG(TTAGGG)3-3' DNA (unknown origin) by Benesi-Hildebrand method in presence of Na+
[15] = Binding affinity to double strand 5'-GGGAGGTTTCGC-3' and 5'-GCGAAACCTCCC-3' DNA (unknown origin) by Benesi-Hildebrand method in presence of K+
[16] = Binding affinity to poly (dA-dT)2 dsDNA (unknown origin) assessed as change in melting temperature at 1:0.3 DNA/ligand ratio by absorbance melting method in presence of Na+
[17] = Binding affinity to double strand 5'-GGGAGGTTTCGC-3' and 5'-GCGAAACCTCCC-3' DNA (unknown origin) assessed as change in melting temperature by spectrophotometry in presence of K+
[18] = Binding affinity to double strand 5'-GGGAGGTTTCGC-3' and 5'-GCGAAACCTCCC-3' DNA (unknown origin) by Benesi-Hildebrand method in presence of Na+
Escherichia coli [19] = experiment: Binding affinity to Escherichia coli pUC19 DNA assessed as formation of supercoiled DNA at 0.4 to 2.4 uM after 1 hr by agarose gel electrophoresis
[20] = Inhibition of telomerase (unknown origin) incubated for 60 mins at 30 degC followed by 5 mins at 95 degC by TRAP assay; parameters: species or system Homo sapiens
Nucleic Acid [21] = experiment: Binding affinity to double strand 5'-GGGAGGTTTCGC-3' and 5'-GCGAAACCTCCC-3' DNA (unknown origin) assessed as DNA intercalation at 0.75 to 11.25 uM by circular dichroism analysis in presence of Na+; format: nucleic-acid assay
[22] = Binding affinity to poly (dA-dT)2 dsDNA (unknown origin) assessed as change in melting temperature at 1:0.1 DNA/ligand ratio by absorbance melting method in presence of Na+
Escherichia coli [23] = experiment: Binding affinity to Escherichia coli pUC19 DNA assessed as formation of supercoiled DNA at 1 to 5 uM after 1 hr by agarose gel electrophoresis
[24] = Binding affinity to 5'-AGGG(TTAGGG)3-3' DNA (unknown origin) assessed as assessed as G-quadruplex formation at 2:1 DNA/ligand molar ratio by circular dichroism analysis in presence of KCl

In the case of CN(C)CCCN1C(=O)c2ccc3c4c(ccc(c24)C1=O)C(=O)N(CCCN(C)C)C3=O, the ΔTm [1] is reported as 5 °C, the Activity (Nucleic Acid [2]) is reported as “Active” and the Activity (Nucleic Acid [3]) is reported as “Active”. For the same compound, the Activity (Nucleic Acid [4]) was “Active”, the Kb [5] was 1.4 ×10⁶ /M and the ΔTm [6] was 6 °C. The Activity [7] was “Active”, the Activity (Calf thymus DNA) was “Active” and the ΔTm [8] was 1 °C. For the same compound, the Activity (Nucleic Acid [9]) was “Active”, the ΔTm [10] was 2 °C and the Activity (Nucleic Acid [11]) was “Active”. For the same compound, the ΔTm [12] was 7 °C, the Activity [13] was “Active” and the Kb [14] was 0.7 ×10⁶ /M. It also gave a Kb [15] of 1 ×10⁶ /M, a ΔTm [16] of 13 °C and a ΔTm [17] of 5 °C. For the same compound, the Kb [18] was 1 ×10⁶ /M, the Activity (Escherichia coli [19]) was “Active” and the EC50 [20] was 6 µM. For the same compound, the Activity (Nucleic Acid [21]) was “Active”, the ΔTm [22] was 4 °C and the Activity (Escherichia coli [23]) was “Active”. For the same compound, the Activity [24] was “Active”.

In the case of O=C1NCCCN2CCN(CCCN3C(=O)c4ccc5c6c(ccc(c46)C3=O)C(=O)N(CCCN3CCN(CCCNC(=O)c4ccc1cc4)CC3)C5=O)CC2, the ΔTm [1] is reported as 10 °C, the Activity (Nucleic Acid [2]) is reported as “Active” and the Activity (Nucleic Acid [3]) is reported as “Active”. The Activity (Nucleic Acid [4]) was “Active”, the Kb [5] was 3.7 ×10⁶ /M and the ΔTm [6] was 9 °C. For the same compound, the Activity [7] was “Active”, the Activity (Calf thymus DNA) was “Active” and the ΔTm [8] was 3 °C. For the same compound, the Activity (Nucleic Acid [9]) was “Active”, the ΔTm [10] was 9 °C and the Activity (Nucleic Acid [11]) was “Active”. For the same compound, the ΔTm [12] was 18 °C, the Activity [13] was “Active” and the Kb [14] was 0.9 ×10⁶ /M. The Kb [15] was 2.6 ×10⁶ /M, the ΔTm [16] was 24 °C and the ΔTm [17] was 10 °C. The Kb [18] was 2.5 ×10⁶ /M, the Activity (Escherichia coli [19]) was “Active” and the EC50 [20] was 0.35 µM. The Activity (Nucleic Acid [21]) was “Active”, the ΔTm [22] was 14 °C and the Activity (Escherichia coli [23]) was “Active”. For the same compound, the Activity [24] was “Active”.
